Patent US5447919A, “Sulfated oligosaccharides” (Hoffmann-La Roche Inc., priority 1991, dated 1995)

Key:
[1] = tested on: smooth muscle cells of rats; assay: Anti-proliferative activity in smooth muscle cell culture (% inhibition of growth after 7 days); type: cell-based, rat; settings: for Anti-proliferative activity % inhibition: rat smooth muscle cells, 7 days, test substance 100 mg/ml as printed (100 μl/ml), vs non-inhibited growth
Protocol: The anti-proliferative activity of the substances was determined in cell cultures as follows: smooth muscle cells of rats (cultivated in DMEM with 10% FCS at 37° C. and 5% CO2) were applied to cell culture plates with a density of 8×10^3 cells/well. After 4 hours, the number of adhered cells was determined and the substances to be tested ([…]) were added. Cells to which test substance was not added served as a comparison and heparin ([…]) served as a positive control. The cells were incubated for 7 days and then the cell number was determined. The antiproliferative activity of the individual substances was calculated as the % inhibition in comparison to non-inhibited growth: [formula] wherein cell number(d=0) =cell number after 4 h […]
cell number(-) =cell number to which test substances was not added, after 7 days. cell number (inhib) =cell number with […] of the test substance

[2] = tested on: citrated human plasma; assay: aPTT (activated partial thromboplastin time) Test; type: biochemical; settings: concentration which leads to a coagulation time double the control value
Protocol: (§1) The blood coagulation-ihibiting activity was determined as follows:
aPTT (activated partial thromboplastin time) Test (see Walenga et al., CRC Critical Reviews in Laboratory Sciences 22 (4) 361-389(1986)): 100 μl of citrated human plasma, which contains various concentrations of test compound, are incubated at 37° C. for 8 minutes with 100 μl of Activated Thrombofax (Ortho Diagnostics, Raritan, N.J., U.S.A.). 100 μl of prewarmed 25 mM calcium chloride solution are then added and the coagulation time is measured in a Fibrometer Coagulation Timer (Becton, Dickinson Basle).
(§2) The activity of the test compound is given as the IC50, which is that concentration [μg/ml] which leads to a coagulation time which is double the control value.

[3] = molecular target: Factor Xa (Bos taurus, UniProt P00743); assay: anti-Xa Clotting Assay; type: biochemical; settings: concentration which leads to a coagulation time double the control value; citrated plasma
Factor Xa, sequence (P00743 234-492 limits assumed): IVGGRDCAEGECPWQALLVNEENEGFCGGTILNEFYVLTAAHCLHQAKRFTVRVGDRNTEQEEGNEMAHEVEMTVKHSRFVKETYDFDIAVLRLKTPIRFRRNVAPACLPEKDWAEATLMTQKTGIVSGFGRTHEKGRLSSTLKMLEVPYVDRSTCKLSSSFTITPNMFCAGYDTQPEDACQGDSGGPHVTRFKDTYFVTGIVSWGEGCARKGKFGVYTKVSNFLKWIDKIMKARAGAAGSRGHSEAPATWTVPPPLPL
Factor Xa, sequence (P00743 41-180 partner limits assumed): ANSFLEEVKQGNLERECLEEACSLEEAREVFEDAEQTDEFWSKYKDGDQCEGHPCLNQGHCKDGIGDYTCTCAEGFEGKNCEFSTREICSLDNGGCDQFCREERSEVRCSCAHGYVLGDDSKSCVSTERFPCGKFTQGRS
Protocol: as §1
anti-Xa Clotting Assay: 25 μl of citrated plasma having various concentrations of test compound are mixed with 75 μl of Factor Xa (Diagnostic Reagents, Thame, Oxon, Great Britain) diluted 1:100 in 0.63% citrate buffer (pH 7.3) which contains 41 mM imidazole, 82 mM NaCl and 0.1% albumin. After warming to 37° C. for 2 minutes, 200 μl of a 1:1 mixture of Factor X Deficient Plasma (Diagnostic Reagents) and Platelet Substitute (Diagnostic Reagents) are added and the mixture is incubated at 37° C. for 20 seconds. After the addition of 100 μl of pre-warmed 50 mM calcium chloride solution, the coagulation time is measured in a Fibrometer.
as §2

Anti-coagulation activity IC50, Coagulation inhibition aPTT [2] [µg/mL]	Anti-coagulation activity IC50, Coagulation inhibition Xa [3] [µg/mL]	Substance	anti-proliferative activity (in words) ([1]; summary of test results of Table 1)	Anti-proliferative activity % inhibition [1] [%]
		Heparin [reference compound]	anti-proliferatively active	
150	250	sulfated melezitese [Example 2]		25
27	> 1000	sulfated raffinose [Example 1]		41
